Reference: EP4745137A1 (Gluetacs Therapeutics (Shanghai) Co., Ltd., priority 2023, dated 2025)
Like-named read-outs stand apart in the source and are kept apart here.

Legend:
IKZF1 = target: T1, IKZF1 (Homo sapiens, UniProt Q13422+Q96SW2); test: Western-blot assay of substrate protein degradation in hPBMCs, IKZF1; assay type: cell-based; conditions: 24 hours of compound treatment
T1 construct: endogenous in cells; host or cells: hPBMCs (Milecell Biotechnologies)

IKZF3 = target: T2, IKZF3 (Homo sapiens, UniProt Q96SW2+Q9UKT9); test: Western-blot assay of substrate protein degradation in hPBMCs, IKZF3; assay type: cell-based; conditions: 24 hours of compound treatment
T2 construct: endogenous in cells; host or cells: hPBMCs (Milecell Biotechnologies)

CK1α = target: T3, CK1α (Homo sapiens, UniProt P48729+Q96SW2); test: Western-blot assay of substrate protein degradation in hPBMCs, CK1α; assay type: cell-based; conditions: 24 hours of compound treatment
T3 construct: endogenous in cells; host or cells: hPBMCs (Milecell Biotechnologies)

[1] = target: T4, human Cereblon WT GST-tagged protein (Homo sapiens, UniProt Q96SW2); test: CRBN-binding affinity by HTRF (CEREBLON BINDING kit)
T4 construct: purchased CISBIO 64BDCRBNPEH
Procedure: The CEREBLON BINDING kits (specification: 10,000 tests; product number: Catalog # 64BDCRBNPEH; CISBIO company) was used to determine the CRBN binding ability of the compounds to be tested through a HTRF method (homogeneous time-resolved fluorescence). The specific methods are as follows: • 1. […] Specifically, diluent #9 (1X) solution was used as the diluent, and multiple concentration gradients were set. […] Then, 2.5 µL of human Cereblon WT GST-tagged protein solution was added to each well. Finally, 5 µL of the thoroughly mixed Thalidomide-Re reagent and GST Eu antibody working solution were added to each of the aforementioned wells. […] The blank control wells were sequentially added with 2.5 µL of diluent #9 (1X) solution, 2.5 µL of binding buffer, and 5 µL of thoroughly mixed Thalidomide-Re reagent and GST Eu antibody working solution. • 4.

GSPT1 = target: T5, GSPT1 (Homo sapiens, UniProt P15170+Q96SW2); test: Western-blot assay of substrate protein degradation in hPBMCs, GSPT1; assay type: cell-based; conditions: 24 hours of compound treatment
T5 construct: endogenous in cells; host or cells: hPBMCs (Milecell Biotechnologies)

WEE1 = target: T6, WEE1 (Homo sapiens, UniProt P30291+Q96SW2); test: Western-blot assay of substrate protein degradation in hPBMCs, WEE1; assay type: cell-based; conditions: 24 hours of compound treatment
T6 construct: endogenous in cells; host or cells: hPBMCs (Milecell Biotechnologies)

IKZF2 = target: T7, IKZF2 (Homo sapiens, UniProt Q96SW2+Q9UKS7); test: Western-blot assay of substrate protein degradation in hPBMCs, IKZF2; assay type: cell-based; conditions: 24 hours of compound treatment
T7 construct: endogenous in cells; host or cells: hPBMCs (Milecell Biotechnologies)

[2] = compounds tested at 50 nM and 500 nM (concentration of the table not stated)
[3] = HTRF inhibitory activity, CEREBLON BINDING kit; read-out: HTRF IC50
[4] = 50 nM and 500 nM tested (concentration behind the class not stated)

T1 sequence (Q13422 whole entry): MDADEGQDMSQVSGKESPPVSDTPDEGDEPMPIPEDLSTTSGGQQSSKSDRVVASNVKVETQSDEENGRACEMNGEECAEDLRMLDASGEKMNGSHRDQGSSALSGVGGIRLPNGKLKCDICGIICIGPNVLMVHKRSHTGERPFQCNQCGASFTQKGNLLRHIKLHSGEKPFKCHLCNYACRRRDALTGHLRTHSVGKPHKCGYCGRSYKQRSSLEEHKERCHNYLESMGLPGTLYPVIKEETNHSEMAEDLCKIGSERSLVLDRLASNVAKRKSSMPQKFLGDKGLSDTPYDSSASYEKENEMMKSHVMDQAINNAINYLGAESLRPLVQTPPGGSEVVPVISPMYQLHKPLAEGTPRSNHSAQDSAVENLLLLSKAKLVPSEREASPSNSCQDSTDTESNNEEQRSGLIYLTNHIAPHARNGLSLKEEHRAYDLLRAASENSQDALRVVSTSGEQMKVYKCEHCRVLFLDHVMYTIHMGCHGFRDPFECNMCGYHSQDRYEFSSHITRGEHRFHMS
T1 sequence (Q96SW2 whole entry): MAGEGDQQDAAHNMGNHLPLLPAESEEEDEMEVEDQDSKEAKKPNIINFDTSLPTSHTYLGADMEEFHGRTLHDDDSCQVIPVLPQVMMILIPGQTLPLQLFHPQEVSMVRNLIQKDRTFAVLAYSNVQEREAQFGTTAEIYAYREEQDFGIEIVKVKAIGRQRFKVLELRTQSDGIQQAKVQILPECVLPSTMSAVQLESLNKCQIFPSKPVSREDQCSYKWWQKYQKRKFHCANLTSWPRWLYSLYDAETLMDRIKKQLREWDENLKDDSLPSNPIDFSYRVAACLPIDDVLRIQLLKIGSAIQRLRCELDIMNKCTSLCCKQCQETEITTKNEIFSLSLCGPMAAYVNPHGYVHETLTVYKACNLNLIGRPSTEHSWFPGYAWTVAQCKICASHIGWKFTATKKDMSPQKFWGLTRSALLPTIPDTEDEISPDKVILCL
T1 sequence (Q16531 whole entry partner): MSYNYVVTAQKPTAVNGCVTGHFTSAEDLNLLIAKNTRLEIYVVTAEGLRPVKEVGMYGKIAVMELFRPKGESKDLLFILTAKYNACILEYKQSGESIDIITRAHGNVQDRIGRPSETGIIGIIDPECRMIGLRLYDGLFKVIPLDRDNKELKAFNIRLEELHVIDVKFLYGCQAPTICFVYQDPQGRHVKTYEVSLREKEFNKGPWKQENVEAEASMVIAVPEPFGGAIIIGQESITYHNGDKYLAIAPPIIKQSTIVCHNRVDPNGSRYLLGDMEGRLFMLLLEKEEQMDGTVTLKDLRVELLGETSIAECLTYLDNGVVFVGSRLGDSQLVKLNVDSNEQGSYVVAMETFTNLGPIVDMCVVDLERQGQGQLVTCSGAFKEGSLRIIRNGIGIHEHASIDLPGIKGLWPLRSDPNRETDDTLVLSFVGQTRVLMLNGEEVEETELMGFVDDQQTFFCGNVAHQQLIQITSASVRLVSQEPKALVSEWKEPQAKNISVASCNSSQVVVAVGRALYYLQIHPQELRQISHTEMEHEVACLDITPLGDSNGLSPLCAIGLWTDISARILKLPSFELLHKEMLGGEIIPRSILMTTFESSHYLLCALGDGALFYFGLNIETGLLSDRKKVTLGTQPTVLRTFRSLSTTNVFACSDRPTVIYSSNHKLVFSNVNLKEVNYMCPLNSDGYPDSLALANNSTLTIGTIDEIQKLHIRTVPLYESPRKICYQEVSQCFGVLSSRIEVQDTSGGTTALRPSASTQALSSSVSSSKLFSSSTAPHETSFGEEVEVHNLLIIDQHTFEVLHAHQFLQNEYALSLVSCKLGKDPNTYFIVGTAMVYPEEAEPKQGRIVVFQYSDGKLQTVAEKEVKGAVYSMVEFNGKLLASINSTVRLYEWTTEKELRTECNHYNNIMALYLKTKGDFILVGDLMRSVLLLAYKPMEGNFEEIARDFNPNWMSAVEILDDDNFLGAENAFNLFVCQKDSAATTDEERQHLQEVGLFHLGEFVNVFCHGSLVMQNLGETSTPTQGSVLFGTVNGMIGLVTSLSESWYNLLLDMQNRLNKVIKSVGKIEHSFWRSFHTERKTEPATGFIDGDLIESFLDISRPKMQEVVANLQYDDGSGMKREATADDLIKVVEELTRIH
T4 sequence (Q96SW2 whole entry): as the sequence (Q96SW2 whole entry) above
T7 sequence (Q9UKS7 whole entry): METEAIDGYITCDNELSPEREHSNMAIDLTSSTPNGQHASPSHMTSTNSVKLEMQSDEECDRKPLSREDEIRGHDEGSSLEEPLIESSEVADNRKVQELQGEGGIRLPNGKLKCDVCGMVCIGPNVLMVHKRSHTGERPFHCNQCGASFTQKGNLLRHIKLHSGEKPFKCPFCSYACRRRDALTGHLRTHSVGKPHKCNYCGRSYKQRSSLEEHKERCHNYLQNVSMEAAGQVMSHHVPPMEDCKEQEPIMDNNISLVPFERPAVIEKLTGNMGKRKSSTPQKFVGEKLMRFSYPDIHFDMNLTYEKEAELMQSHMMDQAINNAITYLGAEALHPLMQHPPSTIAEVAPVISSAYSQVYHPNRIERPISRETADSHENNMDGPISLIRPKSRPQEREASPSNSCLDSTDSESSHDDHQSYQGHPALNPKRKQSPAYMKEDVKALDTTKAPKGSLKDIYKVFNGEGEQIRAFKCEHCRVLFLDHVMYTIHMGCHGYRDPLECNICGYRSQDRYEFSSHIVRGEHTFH
T7 sequence (Q96SW2 whole entry): as the sequence (Q96SW2 whole entry) above
T7 sequence (Q16531 whole entry partner): as the sequence (Q16531 whole entry partner) above
T5 sequence (P15170 whole entry): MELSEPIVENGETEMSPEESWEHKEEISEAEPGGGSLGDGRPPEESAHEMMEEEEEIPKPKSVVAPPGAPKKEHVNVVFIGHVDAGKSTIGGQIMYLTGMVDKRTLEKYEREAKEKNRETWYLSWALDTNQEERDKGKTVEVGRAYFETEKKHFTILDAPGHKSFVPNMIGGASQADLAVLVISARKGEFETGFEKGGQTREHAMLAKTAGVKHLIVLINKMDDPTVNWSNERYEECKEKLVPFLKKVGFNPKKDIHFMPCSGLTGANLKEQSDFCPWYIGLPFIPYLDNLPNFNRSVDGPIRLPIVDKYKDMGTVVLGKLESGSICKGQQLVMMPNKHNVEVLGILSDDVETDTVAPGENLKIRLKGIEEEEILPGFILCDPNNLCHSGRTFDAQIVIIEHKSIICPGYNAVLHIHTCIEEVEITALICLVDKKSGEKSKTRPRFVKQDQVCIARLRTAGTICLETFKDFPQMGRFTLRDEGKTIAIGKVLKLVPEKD
T5 sequence (Q96SW2 whole entry): as the sequence (Q96SW2 whole entry) above
T5 sequence (Q16531 whole entry partner): as the sequence (Q16531 whole entry partner) above
T3 sequence (P48729 whole entry): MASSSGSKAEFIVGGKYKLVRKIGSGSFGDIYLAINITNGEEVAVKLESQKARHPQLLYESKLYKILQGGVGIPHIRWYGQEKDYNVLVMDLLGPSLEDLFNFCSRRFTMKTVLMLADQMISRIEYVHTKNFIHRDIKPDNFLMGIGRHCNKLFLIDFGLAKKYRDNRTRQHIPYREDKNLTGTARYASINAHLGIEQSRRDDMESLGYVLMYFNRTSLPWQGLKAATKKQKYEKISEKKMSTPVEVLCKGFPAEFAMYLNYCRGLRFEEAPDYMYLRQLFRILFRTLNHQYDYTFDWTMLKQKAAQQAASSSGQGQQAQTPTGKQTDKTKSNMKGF
T3 sequence (Q96SW2 whole entry): as the sequence (Q96SW2 whole entry) above
T3 sequence (Q16531 whole entry partner): as the sequence (Q16531 whole entry partner) above
T2 sequence (Q9UKT9 whole entry): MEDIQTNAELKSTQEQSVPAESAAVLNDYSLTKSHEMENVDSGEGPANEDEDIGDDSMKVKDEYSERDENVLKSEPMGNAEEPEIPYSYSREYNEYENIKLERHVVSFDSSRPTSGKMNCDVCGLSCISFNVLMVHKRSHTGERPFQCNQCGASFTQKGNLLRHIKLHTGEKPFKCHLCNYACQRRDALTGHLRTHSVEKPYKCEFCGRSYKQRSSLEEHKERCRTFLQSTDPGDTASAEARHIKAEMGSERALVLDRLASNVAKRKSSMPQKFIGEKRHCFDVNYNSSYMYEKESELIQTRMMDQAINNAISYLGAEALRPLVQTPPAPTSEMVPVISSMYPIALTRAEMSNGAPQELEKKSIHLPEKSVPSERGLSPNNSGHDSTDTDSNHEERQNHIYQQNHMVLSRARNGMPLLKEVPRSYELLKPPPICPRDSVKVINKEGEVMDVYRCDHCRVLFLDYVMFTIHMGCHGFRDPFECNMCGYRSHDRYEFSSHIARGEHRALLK
T2 sequence (Q96SW2 whole entry): as the sequence (Q96SW2 whole entry) above
T2 sequence (Q16531 whole entry partner): as the sequence (Q16531 whole entry partner) above

## Cc1cc(N2CCN(Cc3ccc4c(c3)CN(C3CCC(=O)NC3=O)C4=O)CC2)cc(C)n1 (stereo not drawn) [GT-04492, 3-(5-((4-(2,6-dimethylpyridin-4-yl)piperazin-1-yl)methyl)-1-oxoisoindolin-2-yl)piperidine-2,6-dione]
IKZF1; [2]
  IKZF 1 substrate protein remaining %: B (80%< substrate protein remaining %≤ 100%)
IKZF3; [2]
  IKZF3 substrate protein remaining %: B (80%< substrate protein remaining %≤ 100%)
CK1α; [2]
  CK1a substrate protein remaining %: A (0% ≤ substrate protein remaining % ≤ 80%)
[1]; [3]
  IC50: 500 to 1000 nM
GSPT1; [2]
  GSPT1 substrate protein remaining %: A (0% ≤ substrate protein remaining % ≤ 80%)
WEE1; [2]
  Weel substrate protein remaining %: B (80%< substrate protein remaining %≤ 100%)
IKZF2; [2]
  IKZF2 substrate protein remaining %: B (80%< substrate protein remaining %≤ 100%)

## O=C1CCC(N2C(=O)c3ccc(CN4CCC(=C5CCOc6cc(F)ccc65)CC4)cc3C2=O)C(=O)N1 (stereo not drawn) [GT-06238, 2-(2,6-dioxopiperidin-3-yl)-5-((4-(7-fluorochroman-4-ylidene)piperidin-1-yl)methyl)isoindoline-1,3-dione]
IKZF1; [2]
  IKZF 1 substrate protein remaining %: B (80%< substrate protein remaining %≤ 100%)
IKZF3; [2]
  IKZF3 substrate protein remaining %: A (0% ≤ substrate protein remaining % ≤ 80%)
CK1α; [2]
  CK1a substrate protein remaining %: B (80%< substrate protein remaining %≤ 100%)
[1]; [3]
  IC50: 1000 to 1500 nM
GSPT1; [2]
  GSPT1 substrate protein remaining %: A (0% ≤ substrate protein remaining % ≤ 80%)
WEE1; [2]
  Weel substrate protein remaining %: B (80%< substrate protein remaining %≤ 100%)
IKZF2; [2]
  IKZF2 substrate protein remaining %: A (0% ≤ substrate protein remaining % ≤ 80%)

## O=C1CCC(N2Cc3cc(CN4CCN(c5c(Cl)cncc5Cl)CC4)ccc3C2=O)C(=O)N1 (stereo not drawn) [GT-04436, 3-(5-((4-(3,5-dichloropyridin-4-yl)piperazin-1-yl)methyl)-1-oxoisoindolin-2-yl)piperidine-2,6-dione]
[1]; [3]
  IC50: < 500 nM

## Cc1nc(N2CCN(Cc3ccc4c(c3)C(=O)N(C3CCC(=O)NC3=O)C4=O)CC2)c2c(-c3ccccc3)csc2n1 (stereo not drawn) [GT-06346, 2-(2,6-dioxopiperidin-3-yl)-5-((4-(2-methyl-5-phenylthieno[2,3-d]pyrimidin-4-yl)piperazin-1-yl)methyl)isoindoline-1,3-dione]
[1]; [3]
  IC50: 1000 to 1500 nM

## O=C1CCC(N2Cc3cc(CN4CCN(c5ccnc(Cl)c5)CC4)ccc3C2=O)C(=O)N1 (stereo not drawn) [GT-04435, 3-(5-((4-(2-chloropyridin-4-yl)piperazin-1-yl)methyl)-1-oxoisoindolin-2-yl)piperidine-2,6-dione]
[1]; [3]
  IC50: < 500 nM

## O=C1CCC(N2Cc3cc(CN4CCN(c5nc(Cl)nc6c5SCC6)CC4)ccc3C2=O)C(=O)N1 (stereo not drawn) [GT-04683, 3-(5-((4-(2-chloro-6,7-dihydrothieno[3,2-d]pyrimidin-4-yl)piperazin-1-yl)methyl)-1-oxoisoindolin-2-yl)piperidine-2,6-dione]
[1]; [3]
  IC50: 500 to 1000 nM

## O=C1CCC(N2Cc3ccc(CN4CCC(c5noc6cc(F)ccc56)CC4)cc3C2=O)C(=O)N1 (stereo not drawn) [GT-04768, 3-(6-((4-(6-fluorobenzo[d]isoxazol-3-yl)piperidin-1-yl)methyl)-1-oxoisoindolin-2-yl)piperidine-2,6-dione]
[1]; [3]
  IC50: 1500 to 1900 nM

## O=C1CCC(N2Cc3cc(CN4CCN(c5nc6c(c(N7CCNCC7)n5)SCC6)CC4)ccc3C2=O)C(=O)N1 (stereo not drawn) [GT-04720, 3-(1-oxo-5-((4-(4-(piperazin-1-yl)-6,7-dihydrothieno[3,2-d]pyrimidin-2-yl)piperazin-1-yl)methyl)isoindolin-2-yl)piperidine-2,6-dione]
[1]; [3]
  IC50: < 500 nM

## Cc1nc(N2CCN(Cc3ccc4c(c3)CN(C3CCC(=O)NC3=O)C4=O)CC2)c2c(-c3ccccc3)csc2n1 (stereo not drawn) [GT-05100, 3-(5-((4-(2-methyl-5-phenylthieno[2,3-d]pyrimidin-4-yl)piperazin-1-yl)methyl)-1-oxoisoindolin-2-yl)piperidine-2,6-dione]
[1]; [3]
  IC50: < 500 nM

## O=C1CCC(N2C(=O)c3ccc(CN4CCN(c5ncnc6scc(-c7ccccc7)c56)CC4)cc3C2=O)C(=O)N1 (stereo not drawn) [GT-06345, 2-(2,6-dioxopiperidin-3-yl)-5-((4-(5-phenylthieno[2,3-d]pyrimidin-4-yl)piperazin-1-yl)methyl)isoindoline-1,3-dione]
[1]; [3]
  IC50: 1000 to 1500 nM

## O=C1CCC(N2C(=O)c3ccc(CN4CCC(c5ncnc6scc(-c7ccccc7)c56)CC4)cc3C2=O)C(=O)N1 (stereo not drawn) [GT-06595, 2-(2,6-dioxopiperidin-3-yl)-5-((4-(5-phenylthieno[2,3-d]pyrimidin-4-yl)piperidin-1-yl)methyl)isoindoline-1,3-dione]
[1]; [3]
  IC50: 1000 to 1500 nM

## O=C1CCC(N2C(=O)c3ccc(CN4CCN(c5ccc(Cl)nn5)CC4)cc3C2=O)C(=O)N1 (stereo not drawn) [GT-06605, 5-((4-(6-chloropyridazin-3-yl)piperazin-1-yl)methyl)-2-(2,6-dioxopiperidin-3-yl)isoindoline-1,3-dione]
[1]; [3]
  IC50: 1500 to 1900 nM

## O=C1CCC(N2C(=O)c3ccc(CN4CCN(c5nc6c(c(N7CCOCC7)n5)SCC6)CC4)cc3C2=O)C(=O)N1 (stereo not drawn) [GT-06713, 2-(2,6-dioxopiperidin-3-yl)-5-((4-(4-morpholino-6,7-dihydrothieno[3,2-d]pyrimidin-2-yl)piperazin-1-yl)methyl)isoindoline-1,3-dione]
[1]; read-out: HTRF IC50; HTRF inhibitory activity, CEREBLON BINDING kit
  IC50: 1500 to 1900 nM

## O=C1CCC(N2Cc3cc(CN4CCC(c5noc6cc(F)ccc56)CC4)cc(F)c3C2=O)C(=O)N1 (stereo not drawn) [GT-04767, 3-(7-fluoro-5-((4-(6-fluorobenzo[d]isoxazol-3-yl)piperidin-1-yl)methyl)-1-oxoisoindolin-2-yl)piperidine-2,6-dione]
[1]; [3]
  IC50: 500 to 1000 nM

## O=C1CCC(N2C(=O)c3ccc(CN4CCN(c5ccncc5)CC4)cc3C2=O)C(=O)N1 (stereo not drawn) [GT-06553, 2-(2,6-dioxopiperidin-3-yl)-5-((4-(pyridin-4-yl)piperazin-1-yl)methyl)isoindoline-1,3-dione]
IKZF1; [4]
  IKZF 1 substrate protein remaining %: B (80%< substrate protein remaining %≤ 100%)
IKZF3; [4]
  IKZF3 substrate protein remaining %: B (80%< substrate protein remaining %≤ 100%)
CK1α; [4]
  CK1a substrate protein remaining %: B (80%< substrate protein remaining %≤ 100%)
GSPT1; [4]
  GSPT1 substrate protein remaining %: A (0% ≤ substrate protein remaining % ≤ 80%)
WEE1; [4]
  Weel substrate protein remaining %: B (80%< substrate protein remaining %≤ 100%)
IKZF2; [4]
  IKZF2 substrate protein remaining %: A (0% ≤ substrate protein remaining % ≤ 80%)

## O=C1CCC(N2C(=O)c3ccc(CN4C[C@@H]5C[C@H]4CN5c4cccc(Cl)c4Cl)cc3C2=O)C(=O)N1 (stereo partly drawn) [GT-06691, 5-(((1S,4S)-5-(2,3-dichlorophenyl)-2,5-diazabicyclo[2.2.1]heptan-2-yl)methyl)-2-(2,6-dioxopiperidin-3-yl)isoindoline-1,3-dione]
IKZF1; [4]
  IKZF 1 substrate protein remaining %: B (80%< substrate protein remaining %≤ 100%)
IKZF3; [4]
  IKZF3 substrate protein remaining %: B (80%< substrate protein remaining %≤ 100%)
CK1α; [4]
  CK1a substrate protein remaining %: B (80%< substrate protein remaining %≤ 100%)
GSPT1; [4]
  GSPT1 substrate protein remaining %: A (0% ≤ substrate protein remaining % ≤ 80%)
WEE1; [4]
  Weel substrate protein remaining %: A (0% ≤ substrate protein remaining % ≤ 80%)
IKZF2; [4]
  IKZF2 substrate protein remaining %: A (0% ≤ substrate protein remaining % ≤ 80%)

## O=C1CCC(N2Cc3cc(CN4CCN(c5c(Cl)ccnc5Cl)CC4)ccc3C2=O)C(=O)N1 (stereo not drawn) [GT-04896, 3-(5-((4-(2,4-dichloropyridin-3-yl)piperazin-1-yl)methyl)-1-oxoisoindolin-2-yl)piperidine-2,6-dione]
[1]; [3]
  IC50: 500 to 1000 nM

## O=C1CCC(N2C(=O)c3ccc(CN4CCCC(C5CCNCC5)C4)cc3C2=O)C(=O)N1 (stereo not drawn) [GT-06881, 5-([3,4'-bipiperidin]-1-ylmethyl)-2-(2,6-dioxopiperidin-3-yl)isoindoline-1,3-dione]
IKZF1; [4]
  IKZF 1 substrate protein remaining %: B (80%< substrate protein remaining %≤ 100%)
IKZF3; [4]
  IKZF3 substrate protein remaining %: B (80%< substrate protein remaining %≤ 100%)
CK1α; [4]
  CK1a substrate protein remaining %: A (0% ≤ substrate protein remaining % ≤ 80%)
GSPT1; [4]
  GSPT1 substrate protein remaining %: A (0% ≤ substrate protein remaining % ≤ 80%)
WEE1; [4]
  Weel substrate protein remaining %: B (80%< substrate protein remaining %≤ 100%)
IKZF2; [4]
  IKZF2 substrate protein remaining %: B (80%< substrate protein remaining %≤ 100%)
